We go through eight compounds from PubChem BioAssay (NCI).

Each structure is given as a SMILES string. Where “and” joins values, the source holds several entries; their conditions need not be identical. Equal values may be shown once.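 Interpolation was linear, between the two tested concentrations surrounding the appropriate level; five concentrations were tested over 48 hours in 96-well plates. The concentration for 50% growth inhibition is given as GI50. TGI: concentration producing complete growth inhibition.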 Where a SMILES comes first, the peptide text is derived from it. [ ]: non-standard residue; d: D form. The star is where a group is joined. ξ: configuration not given here. Propanoyl(3-(4-MeO-Ph)) = COc1ccc(CCC(=O)*)cc1; Thr(3ξ) = CC(O)[C@H](N)C(=O)O; dNMeL = CN[C@H](CC(C)C)C(=O)O; OBn = c1ccc(CO*)cc1; ξLac = CC(O)C(=O)O

Among the test systems are SK-MEL-5 melanoma; OVCAR-8 ovarian; UACC-62 melanoma; MALME-3M melanoma; HCC-2998 colon; HCT-116 colon; T-47D breast; HT29 colon; MCF7 breast; K-562 leukemia.
Assay in all cases: NCI anticancer screen, dose series, 48 h

As to `CC(C)NC(=O)OCc1c(COC(=O)NC(C)C)c(-c2ccc[n+](COC(=O)C3CC3)c2)n2c1CCC2`, the TGI with SK-MEL-5 melanoma, with OVCAR-8 ovarian, in the experiment on UACC-62 melanoma, with MALME-3M melanoma, in the experiment on HCC-2998 colon and with HCT-116 colon was greater than 100 µM each time. For the same compound, the TGI with T-47D breast, in the experiment on HT29 colon, in the experiment with MCF7 breast and in the experiment on K-562 leukemia was greater than 100 µM in each case.
Turning to `COc1ccc(CCC(=O)OC(C)[C@H](NC(=O)[C@@H](CC(C)C)N(C)C(=O)[C@@H]2CCCN2C(=O)C(C)O)C(=O)OCc2ccccc2)cc1` (some centres undefined) (H-[ξLac]P[dNMeL][Thr(3ξ)](Propanoyl(3-(4-MeO-Ph)))-OBn), the TGI in the experiment with SK-MEL-5 melanoma was 28.8 µM; in the experiment on OVCAR-8 ovarian, greater than 100 µM; in the experiment with UACC-62 melanoma, 37.9 µM; in the experiment with MALME-3M melanoma it was 45.4 µM; in the experiment with HCC-2998 colon, greater than 100 µM; in the experiment on HCT-116 colon, greater than 100 µM. Further, the TGI is 74.5 µM in the experiment on T-47D breast, greater than 100 µM in the experiment on HT29 colon, greater than 100 µM in the experiment on MCF7 breast and 74.5 µM in the experiment on K-562 leukemia.
On to `C#Cc1cccc(Nc2ncnc3ccc(-c4cnc(Cl)c(NS(C)(=O)=O)c4)cc23)c1`, for which the GI50 with SK-MEL-5 melanoma is 243 nM; in the experiment with OVCAR-8 ovarian it was 825 nM; in the experiment on UACC-62 melanoma, 149 nM; in the experiment with MALME-3M melanoma, 92.4 nM; with HCC-2998 colon, 416 nM; in the experiment on HCT-116 colon it was 400 nM. Moreover, the GI50 in the experiment on T-47D breast is 46 nM; in the experiment with HT29 colon, 404 nM; in the experiment on MCF7 breast, 104 nM; in the experiment on K-562 leukemia, 682 nM. Also, the TGI is 0.704 µM with SK-MEL-5 melanoma; greater than 33.5 µM in the experiment on OVCAR-8 ovarian; 1.07 µM with UACC-62 melanoma; 0.862 µM with MALME-3M melanoma; 1.78 µM with HCC-2998 colon; 3.15 µM in the experiment with HCT-116 colon. Also, the TGI was 1.2 µM in the experiment with T-47D breast, 2.57 µM with MCF7 breast and greater than 100 µM in the experiment with K-562 leukemia.
`CN(C)CCCN=c1cc2c(=O)n(CCCN(C)C)c(=O)c3c(NCCCN(C)C)cc4c(O)n(CCCN(C)C)c(=O)c1c4c3-2`: the GI50 in the experiment with SK-MEL-5 melanoma is 3030 nM; with OVCAR-8 ovarian, 1030 nM; in the experiment with UACC-62 melanoma, 1750 nM; in the experiment on MALME-3M melanoma it was 1270 nM; in the experiment on HCC-2998 colon, 5680 nM; in the experiment on HCT-116 colon, 582 nM. Also, the GI50 is 2350 nM in the experiment on T-47D breast, 573 nM in the experiment on HT29 colon, 409 nM in the experiment with MCF7 breast and 2130 nM in the experiment with K-562 leukemia. Further, the TGI came out at 11.2 µM with SK-MEL-5 melanoma; 11.4 µM with OVCAR-8 ovarian; 4.86 µM in the experiment with UACC-62 melanoma; 5.59 µM in the experiment on MALME-3M melanoma; 22.9 µM in the experiment with HCC-2998 colon; 5.52 µM in the experiment with HCT-116 colon. The TGI was 16.9 µM with T-47D breast, 3.58 µM with HT29 colon, 9.4 µM in the experiment on MCF7 breast and greater than 100 µM in the experiment on K-562 leukemia.
`O=C1/C(=C/c2ccccc2Br)COc2ccc(O)c(O)c21`: the GI50 was 1630 nM with SK-MEL-5 melanoma; 1310 nM with OVCAR-8 ovarian; 1550 nM with UACC-62 melanoma; 1280 nM in the experiment with MALME-3M melanoma; 1830 nM in the experiment on HCC-2998 colon; 1310 nM in the experiment with HCT-116 colon. The GI50 with T-47D breast is 2250 nM; in the experiment on HT29 colon, 3370 nM; in the experiment with MCF7 breast it was 583 nM; in the experiment on K-562 leukemia it was 339 nM. The TGI in the experiment with SK-MEL-5 melanoma is 3.01 µM; with OVCAR-8 ovarian, 12.2 µM; with UACC-62 melanoma it was 3.29 µM; in the experiment on MALME-3M melanoma, 3.27 µM; in the experiment with HCC-2998 colon it was 3.4 µM; with HCT-116 colon, 2.78 µM. For the same compound, the TGI in the experiment on T-47D breast was 11.4 µM; with HT29 colon, 10.4 µM; with MCF7 breast, 6.02 µM; in the experiment with K-562 leukemia, greater than 100 µM.
With `CCCC#CC(O)(C(=O)OC1CCN(C)CC1)C1CCCCC1` (centres undefined), the TGI in the experiment on SK-MEL-5 melanoma, in the experiment with OVCAR-8 ovarian, in the experiment with UACC-62 melanoma, in the experiment on MALME-3M melanoma, in the experiment on HCC-2998 colon and in the experiment on HCT-116 colon was greater than 100 µM each time. In addition, the TGI in the experiment with T-47D breast, in the experiment on HT29 colon, in the experiment on MCF7 breast and in the experiment on K-562 leukemia was greater than 100 µM throughout.
With `COc1cc2c(Nc3ccc(Br)cc3F)ncnc2cc1OCC1CCN(C)CC1`, the GI50 in the experiment with SK-MEL-5 melanoma was 4380 nM and 5500 nM; in the experiment on OVCAR-8 ovarian it was 5000 nM and 7400 nM; with UACC-62 melanoma it was 1800 nM and 2790 nM; in the experiment on MALME-3M melanoma, 1830 nM and 4470 nM; in the experiment with HCC-2998 colon, 7380 nM and > 10000 nM; in the experiment on HCT-116 colon it was 3800 nM and 4320 nM. The GI50 in the experiment on T-47D breast was 1660 nM and 1320 nM; in the experiment on HT29 colon, 2380 nM and 3390 nM; with MCF7 breast it was 2520 nM and 4670 nM; with K-562 leukemia, 436 nM and 651 nM. In addition, the TGI in the experiment on SK-MEL-5 melanoma is 8.94 µM and > 10 µM; in the experiment on OVCAR-8 ovarian it was 18 µM and > 10 µM; in the experiment on UACC-62 melanoma, 4.03 µM and > 10 µM; in the experiment with MALME-3M melanoma it was 3.85 µM and > 10 µM; in the experiment with HCC-2998 colon, 21.6 µM and > 10 µM; with HCT-116 colon, 15.1 µM and > 10 µM. Moreover, the TGI is 8.56 µM and > 10 µM with T-47D breast; 10.8 µM and > 10 µM with HT29 colon; 16 µM and > 10 µM in the experiment with MCF7 breast; 11.8 µM and > 10 µM in the experiment with K-562 leukemia.
Turning to `NC(=O)c1cc(Cl)ccc1NC(=O)c1ccccc1-c1ccccc1`, the GI50 in the experiment on SK-MEL-5 melanoma was 425 nM; in the experiment on OVCAR-8 ovarian it was 2810 nM; in the experiment on UACC-62 melanoma, 836 nM; with MALME-3M melanoma, 620 nM; with HCC-2998 colon it was 2990 nM; in the experiment on HCT-116 colon it was 430 nM. Besides, the GI50 is 1740 nM with T-47D breast, 385 nM with HT29 colon, 457 nM in the experiment with MCF7 breast and 416 nM in the experiment on K-562 leukemia. For the same compound, the TGI in the experiment on SK-MEL-5 melanoma was 15.9 µM; with OVCAR-8 ovarian it was greater than 100 µM; with UACC-62 melanoma it was 25.3 µM; in the experiment on MALME-3M melanoma, 62.9 µM; in the experiment on HCC-2998 colon it was 31.6 µM; in the experiment with HCT-116 colon it was 65.1 µM. The TGI in the experiment with T-47D breast was 64.4 µM; with HT29 colon it was 11.5 µM; with MCF7 breast, greater than 100 µM; in the experiment with K-562 leukemia, greater than 100 µM.
